From BigSolDB 2.1

Conditions: 298.15 K

CC(=O)Oc1ccccc1C(=O)O
Conditions | solubility (mole fraction)
in 1,4-dioxane | 0.126
in 2-ethylhexanol | 0.0303
in 2-methyl-1-butanol | 0.0344
in 2-methyl-1-pentanol | 0.0321
in 2-pentanol | 0.0435
in 3,7-dimethyl-1-octanol | 0.0304
in 4-methyl-2-pentanol | 0.0393
in MTBE | 0.0401
in THF | 0.19
in dibutyl ether | 0.00709
in diethyl ether | 0.0353
in diisopropyl ether | 0.0122
in ethyl acetate | 0.0458
in isobutanol | 0.0319
in isopentanol | 0.0381
in isopropanol | 0.0523
in methyl acetate | 0.0529
in methyl butyrate | 0.0297
in n-butanol | 0.0462
in n-butyl acetate | 0.0335
in n-decanol | 0.0365
in n-heptanol | 0.0389
in n-hexanol | 0.0397
in n-octanol | 0.0358
in n-pentanol | 0.0397
in n-pentyl acetate | 0.0268
in n-propanol | 0.0498
in propylene carbonate | 0.0313
in sec-butanol | 0.0536
in tert-amyl alcohol | 0.0818
in tert-butanol | 0.0684
